{
  "source": "patent US11000065B2",
  "about": "“Aerosol generation and exposure system” (CHARLES R. DREW UNIVERSITY OF MEDICINE AND SCIENCE, priority 2016, dated 2021)",
  "assay": "Electronic cigarette aerosol exposure experiment on mice: plasma concentrations",
  "settings": "9 mice; inhalation of aerosol from one electronic cigarette, 4 seconds per puff, one puff every 20 sec, 10 puffs per episode, one episode every 30 min, 4 episodes in 2 hours",
  "data": [
    {"smiles": "CN1CCCC1c1cccnc1", "note": "(stereo not shown) [nicotine]", "values": [
      {"measurement": "Mouse plasma nicotine concentration (mean±SD)", "result": "35.3 ± 20.0", "unit": "ng/mL"}
    ]}
  ]
}
